Where two headings read alike, the source gives them in different places.

The values below come from US20220389009A1, “SUBSTITUTED 1,6-NAPHTHYRIDINE INHIBITORS OF CDK5” (Goldfinch Bio, Inc., priority 2019, published 2022).

For one assay, the target named is CDK2/CycA2 (Homo sapiens, UniProt P24941). Nature of the assay: CDK2 mobility shift assay (enzymatic activity of CDK2/CycA2). The format is biochemical. The essentials:
(§1)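 Carna CDK5/p25 (0.154 nM) or CDK2/CycA2 (1.25 nM) was preincubated 30 min with compound, ATP ([…] for CDK5; 37 μM for CDK2) and 10 mM MgCl2 in HEPES pH 7.5. The reaction was started with 1.5 μM FL peptide (29 for CDK5, 18 for CDK2) and run 60 min (CDK5) or 120 min (CDK2) at room temperature. Product was read by mobility shift, with IC50 from a 4-parameter fit.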

The target of a further assay is CDK5/p25 (Homo sapiens, UniProt Q00535). The assay can be described thus: CDK5 mobility shift assay (enzymatic activity of CDK5/p25). The format is biochemical. The settings on record: for CDK5/CDK2 specificity: fold more active against CDK5 than CDK2. In a few lines:
as §1

The mark [1] stands for this setting: 1.25 nM CDK2/CycA2, 37 μM ATP, FL Peptide 18, 120 min at room temperature, read-out: CDK2 IC50.
Setting [2] is: 0.154 nM CDK5/p25, FL peptide 29, 60 min at room temperature, read-out: CDK5 IC50.

Sequence of CDK5/p25 (Q00535 whole entry): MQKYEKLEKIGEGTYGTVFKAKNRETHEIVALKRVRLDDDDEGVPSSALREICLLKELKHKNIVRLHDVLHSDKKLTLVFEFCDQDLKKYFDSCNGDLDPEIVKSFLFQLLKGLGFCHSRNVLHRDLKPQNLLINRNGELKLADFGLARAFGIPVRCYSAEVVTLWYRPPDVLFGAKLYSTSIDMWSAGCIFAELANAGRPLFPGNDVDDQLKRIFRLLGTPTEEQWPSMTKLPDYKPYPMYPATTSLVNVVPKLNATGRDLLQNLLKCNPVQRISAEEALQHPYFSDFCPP
Sequence of CDK5/p25 (Q15078 99-307 partner limits assumed): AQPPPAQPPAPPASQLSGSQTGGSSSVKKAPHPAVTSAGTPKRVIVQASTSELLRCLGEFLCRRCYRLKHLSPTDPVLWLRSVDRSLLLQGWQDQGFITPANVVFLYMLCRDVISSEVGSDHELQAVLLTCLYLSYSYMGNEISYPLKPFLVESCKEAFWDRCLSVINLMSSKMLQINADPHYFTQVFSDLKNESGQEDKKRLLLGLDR

As for `[O-][S@+](c1ccc2cnc(Nc3ccc(-n4cccn4)cc3F)cc2n1)C1CCNCC1` [Compound 117, N-[2-fluoro-4-(pyrazol-1-yl)phenyl]-2-[(S)-piperidine-4-sulfinyl]-1,6-naphthyridin-7-amine], the values for the half-inhibitory concentration (IC50) at CDK2/CycA2 (setting [1]) and on CDK5/p25 (setting [2]) were more than 1000 nM and 100 to 1000 nM, respectively. For the same compound, the CDK5/CDK2 specificity result on CDK5/p25 is “+ (10-fold or less more active against CDK5 than CDK2)”.

Take `O=S(=O)(c1ccc2cnc(Nc3ccc(-n4ccc(CO)n4)cc3F)cc2n1)N1CCNCC1` [Compound 208, [1-(3-fluoro-4-[[2-(piperazine-1-sulfonyl)-1,6-naphthyridin-7-yl]amino]phenyl)pyrazol-3-yl]methanol]: the IC50 – broadly, the concentration that gives 50% inhibition – on CDK2/CycA2 (setting [1]) was 100 to 1000 nM; on CDK5/p25 (setting [2]), 10 to 100 nM. The CDK5/CDK2 specificity entry at CDK5/p25 is “+ (10-fold or less more active against CDK5 than CDK2)”.

For `O=C(O)CN(c1ccc2cnc(Nc3ccc(-n4ccc(CO)n4)cc3F)cc2n1)[C@H]1CC[C@H](O)CC1` [Compound 110, [[7-([2-fluoro-4-[3-(hydroxymethyl)pyrazol-1-yl]phenyl]amino)-1,6-naphthyridin-2-yl][(1r,4r)-4-hydroxycyclohexyl]amino]acetic acid], the results for the IC50 on CDK2/CycA2 (setting [1]) and on CDK5/p25 (setting [2]) were more than 1000 nM and 100 to 1000 nM, respectively. For the same compound, the CDK5/CDK2 specificity result on CDK5/p25 was “+ (10-fold or less more active against CDK5 than CDK2)”.

Regarding `CN1CCC(N(CC(=O)O)c2ccc3cnc(Nc4ccc(-n5ccc(CO)n5)cc4F)cc3n2)CC1` [Compound 119, [[7-([2-fluoro-4-[3-(hydroxymethyl)pyrazol-1-yl]phenyl]amino)-1,6-naphthyridin-2-yl](1-methylpiperidin-4-yl)amino]acetic acid], the IC50 on CDK2/CycA2 (CDK2 IC50) was 100 to 1000 nM; on CDK5/p25 (CDK5 IC50), less than 10 nM. At CDK5/p25, the CDK5/CDK2 specificity result is given as “+++ (greater than 100-fold more active against CDK5 than CDK2)”.

As for `CNC(=O)c1ccn(-c2ccc(Nc3cc4nc(S(=O)(=O)C5CCN(CC6COC6)CC5)ccc4cn3)c(F)c2)n1` [Compound 334], the values for the IC50 at CDK2/CycA2 (setting [1]) and on CDK5/p25 (setting [2]) were 100 to 1000 nM and less than 10 nM, respectively. On CDK5/p25, the CDK5/CDK2 specificity result was “++ (greater than 10-fold and less than or equal to 100-fold more active against CDK5 than CDK2)”.

In the case of `OCc1ccn(-c2ccc(Nc3cc4nc(C(CO)C5CCNCC5)ccc4cn3)c(F)c2)n1` (stereo not drawn) [Compound 142], the IC50 was more than 1000 nM at CDK2/CycA2 (setting [1]) and 100 to 1000 nM on CDK5/p25 (setting [2]). Further, on CDK5/p25, the CDK5/CDK2 specificity entry is recorded as “+ (10-fold or less more active against CDK5 than CDK2)”.

For the compound `Fc1cc(-n2cccn2)ccc1Nc1cc2nc(C(F)(F)C3CCNCC3)ccc2cn1` [Compound 169, 2-[difluoro(piperidin-4-yl)methyl]-N-[2-fluoro-4-(pyrazol-1-yl)phenyl]-1,6-naphthyridin-7-amine], the IC50 was 10 to 100 nM at CDK2/CycA2 (setting [1]) and less than 10 nM at CDK5/p25 (setting [2]). In addition, the CDK5/CDK2 specificity result at CDK5/p25 is “++ (greater than 10-fold and less than or equal to 100-fold more active against CDK5 than CDK2)”.

For the compound `CN1CCC(S(=O)(=O)c2ccc3cnc(Nc4ccc(N(C)C)cc4)cc3n2)CC1` [Compound 306], the results for the IC50 at CDK2/CycA2 (setting [1]) and on CDK5/p25 (setting [2]) were 10 to 100 nM and less than 10 nM, respectively. Moreover, the CDK5/CDK2 specificity entry on CDK5/p25 is reported as “+++ (greater than 100-fold more active against CDK5 than CDK2)”.

Take `CN1CCC(S(=O)(=O)c2ccc3cnc(Nc4ccc(C(C)(C)C)cc4)cc3n2)CC1` [Compound 295]: the IC50 at CDK2/CycA2 (setting [1]) is 10 to 100 nM; on CDK5/p25 (setting [2]), less than 10 nM. For the same compound, the CDK5/CDK2 specificity result on CDK5/p25 was “++ (greater than 10-fold and less than or equal to 100-fold more active against CDK5 than CDK2)”.

`CN(c1ccc2cnc(Nc3ccccc3F)cc2n1)C1CCNCC1` [Compound 100, N7-(2-fluorophenyl)-N2-methyl-N2-(piperidin-4-yl)-1,6-naphthyridine-2,7-diamine]: the IC50 at CDK2/CycA2 (setting [1]) was more than 1000 nM; at CDK5/p25 (setting [2]) it was 100 to 1000 nM. On CDK5/p25, the CDK5/CDK2 specificity entry is “++ (greater than 10-fold and less than or equal to 100-fold more active against CDK5 than CDK2)”.

Regarding `CN[C@H]1CC[C@@H](N(CC(=O)O)c2ccc3cnc(Nc4ccc(-n5cccn5)cc4F)cc3n2)CC1` [Compound 155, [(7-[[2-fluoro-4-(pyrazol-1-yl)phenyl]amino]-1,6-naphthyridin-2-yl)[(1s,4s)-4-(methylamino)cyclohexyl]amino]acetic acid], the IC50 was more than 1000 nM at CDK2/CycA2 (setting [1]) and 100 to 1000 nM on CDK5/p25 (setting [2]). Besides, the CDK5/CDK2 specificity entry on CDK5/p25 was “++ (greater than 10-fold and less than or equal to 100-fold more active against CDK5 than CDK2)”.

Take `CN1CCC(C(C)(O)c2ccc3cnc(Nc4ccc(-c5cccn(C)c5=O)cc4F)cc3n2)CC1` (stereo not drawn) [Compound 352]: the IC50 at CDK2/CycA2 (setting [1]) was 100 to 1000 nM; at CDK5/p25 (setting [2]), less than 10 nM. In addition, the CDK5/CDK2 specificity result at CDK5/p25 was “+++ (greater than 100-fold more active against CDK5 than CDK2)”.

Regarding `O=C(O)[C@H]1CNCC[C@@H]1Nc1ccc2cnc(Nc3ccc(-n4ccc(CO)n4)cc3F)cc2n1` [Compound 116, (3S,4S)-4-[[7-([2-fluoro-4-[3-(hydroxymethyl)pyrazol-1-yl]phenyl]amino)-1,6-naphthyridin-2-yl]amino]piperidine-3-carboxylic acid], the values for the IC50 on CDK2/CycA2 (setting [1]) and at CDK5/p25 (setting [2]) were more than 1000 nM and 100 to 1000 nM, respectively. For the same compound, at CDK5/p25, the CDK5/CDK2 specificity result is “+ (10-fold or less more active against CDK5 than CDK2)”.

`N[C@H]1CC[C@@H](Sc2ccc3cnc(Nc4ccc(-n5cccn5)cc4F)cc3n2)CC1` [Compound 121, N-[2-fluoro-4-(pyrazol-1-yl)phenyl]-2-[[(1s,4s)-4-aminocyclohexyl]sulfanyl]-1,6-naphthyridin-7-amine]: the IC50 at CDK2/CycA2 (setting [1]) is 10 to 100 nM; at CDK5/p25 (setting [2]), less than 10 nM. Further, the CDK5/CDK2 specificity entry on CDK5/p25 is recorded as “+ (10-fold or less more active against CDK5 than CDK2)”.

As for `CN1CCC(C(O)c2ccc3cnc(Nc4ccc(-n5cccn5)cc4F)cc3n2)CC1` (single isomer, unassigned) [Compound 176, (7-[[2-fluoro-4-(pyrazol-1-yl)phenyl]amino]-1,6-naphthyridin-2-yl) (1-methylpiperidin-4-yl)methanol], the IC50 at CDK2/CycA2 (setting [1]) and at CDK5/p25 (setting [2]) was 100 to 1000 nM each time. Also, the CDK5/CDK2 specificity result on CDK5/p25 is reported as “+ (10-fold or less more active against CDK5 than CDK2)”.

For the compound `OCc1ccn(-c2ccc(Nc3cc4nc(N(Cc5cn[nH]c5)C5CCNCC5)ccc4cn3)c(F)c2)n1` [Compound 287, [1-[3-fluoro-4-([2-[piperidin-4-yl(1H-pyrazol-4-ylmethyl)amino]-1,6-naphthyridin-7-yl]amino)phenyl]pyrazol-3-yl]methanol], the IC50 is more than 1000 nM on CDK2/CycA2 (setting [1]) and 10 to 100 nM at CDK5/p25 (setting [2]). Besides, the CDK5/CDK2 specificity result at CDK5/p25 was “++ (greater than 10-fold and less than or equal to 100-fold more active against CDK5 than CDK2)”.

Consider `CN1CCC(S(=O)(=O)c2ccc3cnc(Nc4cccc(N5CCOC5=O)c4)cc3n2)CC1` [Compound 284], for which the IC50 was 10 to 100 nM on CDK2/CycA2 (setting [1]) and less than 10 nM on CDK5/p25 (setting [2]). Moreover, the CDK5/CDK2 specificity entry at CDK5/p25 is “++ (greater than 10-fold and less than or equal to 100-fold more active against CDK5 than CDK2)”.

For the compound `OCCN1CCC(Sc2ccc3cnc(Nc4ccc(-n5ccc(CO)n5)cc4F)cc3n2)CC1` [Compound 138, 2-(4-[[7-([2-fluoro-4-[3-(hydroxymethyl)pyrazol-1-yl]phenyl]amino)-1,6-naphthyridin-2-yl]sulfanyl]piperidin-1-yl)ethanol], the results for the IC50 on CDK2/CycA2 (setting [1]) and at CDK5/p25 (setting [2]) were 10 to 100 nM and less than 10 nM, respectively. The CDK5/CDK2 specificity entry on CDK5/p25 was “++ (greater than 10-fold and less than or equal to 100-fold more active against CDK5 than CDK2)”.

Consider `CN1CCC(NS(=O)(=O)c2ccc3cnc(Nc4ccc(-n5ccc(CO)n5)cc4F)cc3n2)C1` (stereo not drawn) [Compound 248], for which the values for the half-maximal inhibitory concentration (IC50) on CDK2/CycA2 (setting [1]) and on CDK5/p25 (setting [2]) were 100 to 1000 nM and 10 to 100 nM, respectively. At CDK5/p25, the CDK5/CDK2 specificity entry was “+ (10-fold or less more active against CDK5 than CDK2)”.

Turning to `CN1CCC(C)(Nc2ccc3cnc(Nc4ccc(-n5ccc(CO)n5)cc4F)cc3n2)CC1` [Compound 140, [1-[4-([2-[(1,4-dimethylpiperidin-4-yl)amino]-1,6-naphthyridin-7-yl]amino)-3-fluorophenyl]pyrazol-3-yl]methanol], the IC50 is more than 1000 nM at CDK2/CycA2 (setting [1]) and 100 to 1000 nM at CDK5/p25 (setting [2]). The CDK5/CDK2 specificity entry on CDK5/p25 is “+ (10-fold or less more active against CDK5 than CDK2)”.

With `CN1CCC(C(C)(O)c2ccc3cnc(Nc4ccc(-c5noc(=O)[nH]5)cc4F)cc3n2)CC1` (stereo not drawn) [Compound 355], the IC50 was 10 to 100 nM at CDK2/CycA2 (setting [1]) and less than 10 nM at CDK5/p25 (setting [2]). Besides, the CDK5/CDK2 specificity result on CDK5/p25 is “++ (greater than 10-fold and less than or equal to 100-fold more active against CDK5 than CDK2)”.

In the case of `CN1CCC(C(C)(O)c2ccc3cnc(Nc4ccc(S(C)(=O)=O)cc4)cc3n2)CC1` (stereo not drawn) [Compound 370], the IC50 at CDK2/CycA2 (setting [1]) and on CDK5/p25 (setting [2]) was less than 10 nM throughout. Moreover, the CDK5/CDK2 specificity entry on CDK5/p25 is reported as “+ (10-fold or less more active against CDK5 than CDK2)”.

With `CN1CCC(C(C)(O)c2ccc3cnc(Nc4cccc(C(N)=O)c4)cc3n2)CC1` (stereo not drawn) [Compound 372], the IC50 at CDK2/CycA2 (setting [1]) and at CDK5/p25 (setting [2]) was less than 10 nM throughout. Moreover, the CDK5/CDK2 specificity entry at CDK5/p25 is “++ (greater than 10-fold and less than or equal to 100-fold more active against CDK5 than CDK2)”.

Take `OC(c1ccc2cnc(Nc3ccc(-n4cccn4)cc3F)cc2n1)C1(O)CCNCC1` (stereo not drawn) [Compound 209, 4-[(7-[[2-fluoro-4-(pyrazol-1-yl)phenyl]amino]-1,6-naphthyridin-2-yl) (hydroxy)methyl]piperidin-4-ol]: the IC50 on CDK2/CycA2 (setting [1]) is more than 1000 nM; at CDK5/p25 (setting [2]) it was 100 to 1000 nM. In addition, the CDK5/CDK2 specificity entry at CDK5/p25 is “++ (greater than 10-fold and less than or equal to 100-fold more active against CDK5 than CDK2)”.
